The experiment deals with HCV replicon. The experiment in a line: Cell-Based HCV Replicon Assay. The conditions noted are these: Hepatitis C virus. The essentials: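 EC50 and EC90 taken from sigmoid fits of ΔCT (5B minus GAPDH) as the concentrations raising ΔCT by 1 and 3.2 over baseline, via multiplex real-time RT-PCR on lysates after 3 days. Replicon cells at 5000/well; 10 two-fold dilutions from 25–1 μM, 0.5% DMSO, 10% FBS.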
On the technique in general: In antiviral work, replicon cells carry a viral genome segment that copies itself.

Where [1] appears, read: HCV Replicon assay, EC90 range, Table VI, read-out: EC90.
The mark [2] stands for this setting: 72 h, Table IV, replicon cells, day 3, real time PCR, EC90 = concentration for ΔCT=3.2 over baseline, read-out: EC90.
[3] abbreviates: 72 h, Table V, class codes, replicon cells, day 3, real time PCR, EC90 = concentration for ΔCT=3.2 over baseline, read-out: EC90 (uM) range.

Here are results for 52 molecules from patent publication US9433621B2, “Substituted pyridine and pyrimidine derivatives and their use in treating viral infections” (Merck Sharp & Dohme Corp., priority 2010, dated 2016).

Read-outs that look alike come from different tables or passages of the source. A value given as a limit tells only on which side of the number the result lay.

One may read the EC90 as the concentration at which the effect reaches the 90% level. Regarding `CO[C@@H](CNc1nc(C)c(-c2nc3c(C)nccc3s2)c(N[C@@H]2C[C@H](CO)[C@@H](O)[C@H]2O)n1)c1ccc(F)cc1` [Example 5226], the EC90 under setting [1] is below 0.5 µM.

As for `CCC(O)(CC)[C@H]1C[C@@H](Nc2nc(NCC3CC3)nc(C)c2-c2nc3c(C)nccc3s2)[C@H](O)[C@@H]1O` [Example 3182], the EC90 under setting [2] was 0.068 µM.

For `C[C@@H](Nc1ncc(-c2nc3c(C4CC4)nccc3s2)c(N[C@@H]2C[C@H](CS(C)(=O)=O)[C@@H](O)[C@H]2O)n1)C1CC1` [Example 4917], the 90% effect concentration (EC90) (72 h, Table V, cells printed as numeric bound instead of code, replicon cells, day 3, real time PCR, read-out: EC90 (uM) range) is above 0.2 µM.

For the molecule `Cc1nc(NCCC(C)C)nc(N[C@@H]2C[C@H](C(F)F)[C@@H](O)[C@H]2O)c1-c1nc2c(C3CC3)nccc2s1` [Example 5193], the concentration for an effect of 90% (EC90) under setting [1] was below 0.5 µM.

In the case of `CO[C@@H](CNc1nc(C)c(-c2nc3c(C)nccc3s2)c(N[C@@H]2C[C@H](C(C)(C)O)[C@@H](O)[C@H]2O)n1)c1ccccc1` [Example 5135], under setting [1], the concentration for an effect of 90% (EC90) was below 0.5 µM.

Consider `Cc1nc(NCCSC(C)(C)C)nc(N[C@@H]2C[C@H](CS(C)(=O)=O)[C@@H](O)[C@H]2O)c1-c1nc2c(C3CC3)nccc2s1` [Example 5007], for which the concentration for an effect of 90% (EC90) under setting [1] is below 0.5 µM.

With `Cc1nc(NCC(F)(F)F)nc(N[C@@H]2C[C@H](C(C)(C)S(=O)(=O)c3ccccc3)[C@@H](O)[C@H]2O)c1-c1nc2c(C)nccc2s1` [Example 5067], the concentration for an effect of 90% (EC90) under setting [1] is below 0.5 µM.

For the molecule `COC(=O)NC(C)(C)[C@H]1C[C@@H](Nc2nc(NC[C@@H](C)OC)nc(C)c2-c2nc3c(C)nccc3s2)[C@H](O)[C@@H]1O` [Example 5041], under setting [1], the EC90 is below 0.5 µM.

With `Cc1nc(N[C@H](C)C2CC2)nc(N[C@@H]2C[C@H](NC(=O)NCc3ccc(C(F)(F)F)cc3)[C@@H](O)[C@H]2O)c1-c1nc2c(C3CC3)nccc2s1` [Example 5090], the EC90 under setting [1] was below 0.5 µM.

Regarding `Cc1nc(NCC2(O)CCCC2)nc(NC2(CO)CCCC2)c1-c1nc2c(C3CC3)nccc2s1` [Example 5127], the EC90 under setting [1] was below 0.5 µM.

In the case of `COCCNc1nc(C)c(-c2nc3c(C)nccc3s2)c(NC2(CO)CCCC2)n1` [Example 5131], the EC90 under setting [1] is below 0.5 µM.

As to `Cc1nc(NCc2c(F)cc(F)cc2F)nc(N[C@@H]2C[C@H](CS(C)(=O)=O)[C@@H](O)[C@H]2O)c1-c1nc2c(C3CC3)nccc2s1` [Example 3563], the EC90 under setting [2] was 0.003 µM.

Consider `Cc1nc(NCC2CC2)nc(N[C@@H]2C[C@H](Cc3nccs3)[C@@H](O)[C@H]2O)c1-c1nc2cnccc2s1` [Example 5290], for which the EC90 under setting [1] is below 0.5 µM.

`Cc1nc(NCc2c(F)cccc2F)nc(N[C@@H]2C[C@H](COc3c(F)cccc3F)[C@@H](O)[C@H]2O)c1-c1nc2c(C)nccc2s1` [Example 5206]: the EC90 under setting [1] was below 0.5 µM.

Regarding `COCCNc1ncc(-c2nc3c(C)nccc3s2)c(N[C@@H]2C[C@H](C(C)(C)O)[C@@H](O)[C@H]2O)n1` [Example 4938], the EC90 under setting [3] is below 0.5 µM.

On to `COCCNc1nc(C)c(-c2nc3c(C4CC4)nccc3s2)c(N[C@@H]2C[C@H](C(=O)Nc3ccccc3)[C@@H](O)[C@H]2O)n1` [Example 4949], for which, under setting [3], the EC90 is below 0.5 µM.

As for `CS(=O)(=O)C[C@H]1C[C@@H](Nc2nc(N)ncc2-c2nc3c(C4CC4)nccc3s2)[C@H](O)[C@@H]1O` [Example 4919], under setting [3], the EC90 is below 0.5 µM.

Take `CCO[C@H]1C[C@@H](CNc2nc(C)c(-c3nc4c(C5CC5)nccc4s3)c(N[C@@H]3C[C@H](CO)[C@@H](O)[C@H]3O)n2)C1` [Example 5293]: the EC90 under setting [1] was below 0.5 µM.

With `Cc1cc(S(=O)(=O)C[C@H]2C[C@@H](Nc3nc(NCC(F)(F)F)nc(C)c3-c3nc4c(C)nccc4s3)[C@H](O)[C@@H]2O)ccc1F` [Example 5009], under setting [1], the concentration for an effect of 90% (EC90) was below 0.5 µM.

Turning to `Cc1nccc2sc(-c3cnc(N[C@H](C)C4CCC4)nc3N[C@@H]3C[C@H](CO)[C@@H](O)[C@H]3O)nc12` [Example 4915], under “72 h, read-out: EC90 (uM) range”, the EC90 was above 1 µM.

On to `Cc1nc(NC2(C(C)C)CC2)nc(N[C@@H]2C[C@H](C(C)(C)O)[C@@H](O)[C@H]2O)c1-c1nc2c(C)nccc2s1` [Example 5030], for which the EC90 under setting [1] lay within 0.5 to 5 µM.

With `CCOCCNc1nc(C)c(-c2nc3c(C)nccc3s2)c(N[C@@H]2C[C@H](C(O)(COC)COC)[C@@H](O)[C@H]2O)n1` [Example 5243], the EC90 under setting [1] was below 0.5 µM.

Take `COCCNc1nc(C)c(-c2nc3c(C)nccc3s2)c(NC2(CO)CCCCC2)n1` [Example 5200]: under setting [1], the EC90 is below 0.5 µM.

Take `CO[C@H](C)CNc1nc(C)c(-c2nc3c(C)nccc3s2)c(N[C@@H]2C[C@H](COc3cc(F)c(F)cc3F)[C@@H](O)[C@H]2O)n1` [Example 5034]: the 90% effect concentration (EC90) under setting [1] is below 0.5 µM.

On to `CCNC(=O)N[C@H]1C[C@@H](Nc2nc(NC(C)(C)C)nc(C)c2-c2nc3c(C4CC4)nccc3s2)[C@H](O)[C@@H]1O` [Example 5094], for which, under setting [1], the EC90 is below 0.5 µM.

`Cc1nc(N)nc(N[C@H]2CCC[C@@H]2O)c1-c1nc2c(C)nccc2s1` [Example 5151]: under setting [1], the EC90 is below 0.5 µM.

Turning to `Cc1nc(N[C@H](C)C2CC2)nc(N[C@@H]2C[C@H](NC(=O)NC(C)(C)C)[C@@H](O)[C@H]2O)c1-c1nc2c(C3CC3)nccc2s1` [Example 5089], under setting [1], the EC90 was below 0.5 µM.

With `COC[C@@H](C)Nc1nc(C)c(-c2nc3c(C)nccc3s2)c(N[C@@H]2C[C@H](C(O)(COC)COC)[C@@H](O)[C@H]2O)n1` [Example 5244], the EC90 under setting [1] is below 0.5 µM.

For `Cc1nc(NCc2c(F)cccc2F)nc(N[C@@H]2C[C@H](NC(=O)NC(C)C)[C@@H](O)[C@H]2O)c1-c1nc2c(C3CC3)nccc2s1` [Example 5083], the EC90 under setting [1] is below 0.5 µM.

Take `Cc1nc(NCC2CC(F)(F)C2)nc(N[C@@H]2C[C@H](C(C)(C)O)[C@@H](O)[C@H]2O)c1-c1nc2c(C)nccc2s1` [Example 3239]: the EC90 under setting [2] came to 0.01 µM.

In the case of `Cc1cc2sc(-c3c(C)nc(N[C@H](C)C4CC4)nc3N[C@@H]3C[C@H](CO)[C@@H](O)[C@H]3O)nc2cn1` [Example 4952], the 90% effect concentration (EC90) under setting [3] is below 0.5 µM.

Regarding `CO[C@@]1(CNc2nc(C)c(-c3nc4c(C)nccc4s3)c(N[C@@H]3C[C@H](C(C)(C)O)[C@@H](O)[C@H]3O)n2)CCOC1` [Example 5102], the concentration for an effect of 90% (EC90) under setting [1] is below 0.5 µM.

Take `Cc1nc(NC2(C)CCC2)nc(N[C@@H]2C[C@H](CS(C)(=O)=O)[C@@H](O)[C@H]2O)c1-c1nc2c(C)nccc2s1` [Example 5152]: the concentration for an effect of 90% (EC90) under setting [1] is below 0.5 µM.

For `CO[C@H]1CCCC[C@@H]1Nc1nc(C)c(-c2nc3c(C)nccc3s2)c(N[C@@H]2C[C@H](C(C)(C)O)[C@@H](O)[C@H]2O)n1` [Example 5137], the EC90 under setting [1] was 0.5 to 5 µM.

Turning to `CS(=O)(=O)C[C@H]1C[C@@H](Nc2nc(NCC3CC3)ncc2-c2nc3c(C4CC4)nccc3s2)[C@H](O)[C@@H]1O` [Example 4920], under setting [3], the EC90 was below 0.5 µM.

For the molecule `CCSCCNc1ncc(-c2nc3c(C)nccc3s2)c(N[C@@H]2C[C@H](C(C)(C)O)[C@@H](O)[C@H]2O)n1` [Example 4936], the EC90 under setting [3] was below 0.5 µM.

Consider `COCCNc1nc(C)c(-c2nc3c(C4CC4)nccc3s2)c(N[C@@H]2C[C@H](C(=O)Nc3nccs3)[C@@H](O)[C@H]2O)n1` [Example 4926], for which the EC90 under setting [3] is below 0.5 µM.

Regarding `Cc1nc(NCC2CCC2)nc(N[C@@H]2C[C@H](C(F)F)[C@@H](O)[C@H]2O)c1-c1nc2c(C3CC3)nccc2s1` [Example 5185], the EC90 under setting [1] was below 0.5 µM.

As for `Cc1nc(NCc2c(F)cccc2F)nc(NC2(C)CCC2)c1-c1nc2c(C)nccc2s1` [Example 5216], under setting [1], the EC90 is below 0.5 µM.

On to `Cc1nc(NC(C)C2CC(F)(F)C2)nc(N[C@@H]2C[C@H](CO)C(O)[C@H]2O)c1-c1nc2c(C3CC3)nccc2s1` (stereo partly shown) [Example 5300], for which the EC90 under setting [1] was below 0.5 µM.

Take `CO[C@@H]1[C@@H](CO)C[C@@H](Nc2nc(N)nc(C)c2-c2nc3c(C)nccc3s2)[C@@H]1O` [Example 4907]: the EC90 under setting [3] was below 0.5 µM.

In the case of `CO[C@H]1CCC[C@@H]1Nc1nc(C)c(-c2nc3c(C)nccc3s2)c(N[C@@H]2C[C@H](CO)[C@@H](O)[C@H]2O)n1` [Example 5146], the EC90 under setting [1] was below 0.5 µM.

`Cc1nc(N[C@H](C)C2CC2)nc(N[C@@H]2C[C@H](NC(=O)NCc3ccc(F)cc3)[C@@H](O)[C@H]2O)c1-c1nc2c(C3CC3)nccc2s1` [Example 5023]: under setting [1], the EC90 was below 0.5 µM.

With `CO[C@@H]1[C@@H](CO)C[C@@H](Nc2nc(NCC(F)(F)F)nc(C)c2-c2nc3c(C)nccc3s2)[C@@H]1O` [Example 4905], under setting [3], the EC90 is below 0.5 µM.

`Cc1nc(N[C@H](C)C2CC2)nc(N[C@@H]2C[C@H](COc3c(F)cccc3F)[C@@H](O)[C@H]2O)c1-c1nc2c(C)nccc2s1` [Example 5207]: under setting [1], the EC90 is below 0.5 µM.

For the molecule `Cc1nc(NCC2CC2)nc(NC2(CO)CCCC2)c1-c1nc2c(C)nccc2s1` [Example 5132], under setting [1], the concentration for an effect of 90% (EC90) is below 0.5 µM.

`Cc1nc(NCCSc2ccccc2)nc(N[C@@H]2C[C@H](C(C)(C)O)[C@@H](O)[C@H]2O)c1-c1nc2c(C)nccc2s1` [Example 5280]: the 90% effect concentration (EC90) under setting [1] was below 0.5 µM.

`CCO[C@@H](CNc1nc(C)c(-c2nc3c(C)nccc3s2)c(N[C@@H]2C[C@H](C(C)(C)O)[C@@H](O)[C@H]2O)n1)C(F)(F)F` [Example 5235]: the EC90 under setting [1] is below 0.5 µM.

Regarding `CO[C@H](C)CNc1nc(C)c(-c2nc3c(C)nccc3s2)c(N[C@@H]2C[C@H](C3(O)CC3)[C@@H](O)[C@H]2O)n1` [Example 5238], under setting [1], the EC90 was below 0.5 µM.

In the case of `Cc1nc(NCC2CC2)nc(N[C@@H]2C[C@H](NC(=O)Nc3ccccc3)[C@@H](O)[C@H]2O)c1-c1nc2c(C3CC3)nccc2s1` [Example 5092], under setting [1], the 90% effect concentration (EC90) is below 0.5 µM.

As for `Cc1nc(NC2CC2)nc(N[C@@H]2C[C@H](C(C)(F)F)[C@@H](O)[C@H]2O)c1-c1nc2c(C3CC3)nccc2s1` [Example 5173], under setting [1], the EC90 was below 0.5 µM.

As to `Cc1nc(NCC2(O)CCCC2)nc(N[C@H]2C=C[C@@H](CO)C2)c1-c1nc2c(C)nccc2s1` [Example 5158], the EC90 under setting [1] was below 0.5 µM.
